Measurements: publication PMC3242765, “Inhibitors of Alphavirus Entry and Replication Identified with a Stable Chikungunya Replicon Cell Line and Virus-Based Assays” (PLoS ONE, 2011)
Read-outs that look alike come from different tables or passages of the source.

What was measured:
SINV = assay: CPE reduction assay, SINV (WST-1); assay type: cell-based, Sindbis virus (SINV); conditions: Sindbis virus, BHK, 24 h, read-out: SINV IC50 (CPE reduction)
SFV [1] = assay: Viral yield analysis using a plaque assay; assay type: cell-based, Semliki Forest virus (SFV); conditions: for SFV yield: BHK cells, MOI 0.01, 50 µM compound, 16 h, untreated control 1.4×10^9 PFU/ml
SFV-Rluc [2] = assay: microbe, parasite or virus in culture; conditions: Semliki Forest virus, BHK, 14 h, read-out: SFV IC50
SFV-Rluc [3] = system: SFV-Rluc
CHIKV replicon = assay: microbe, parasite or virus in culture; assay type: cell-based, Chikungunya virus (CHIKV); conditions: for IC50: Chikungunya virus, 48 h
BHK cells = assay: Cell viability ATP assay, BHK cells; assay type: cell-based, hamster; conditions: Mesocricetus auratus, BHK, 48 h, read-out: Cell viability IC50
SFV [4] = assay: CPE reduction assay, SFV (WST-1); assay type: cell-based, Semliki Forest virus (SFV); conditions: Semliki Forest virus, BHK, 22 h, read-out: SFV IC50 (CPE reduction)
CHIKV-Rluc = assay: microbe, parasite or virus in culture; assay type: cell-based, Chikungunya virus (CHIKV); conditions: Chikungunya virus, BHK, 16 h, read-out: CHIKV-Rluc IC50
BHK-CHIKV-NCT cells = assay: Cell viability ATP assay, BHK-CHIKV-NCT cells; assay type: cell-based, hamster
SFVts9-Rluc = assay type: cell-based, Semliki Forest virus (SFV)
[5] = Mesocricetus auratus, 48 h, read-out: Cell viability IC50, ATP assay, 48 h exposure of BHK-CHIKV-NCT cells, up to 200 µM

Structure (SMILES) | IC50 (SINV) | SFV yield (SFV [1]) | IC50 (SFV-Rluc [2]) | SFV replication % left (surviving fraction, remaining percentage of SFV replication) (SFV-Rluc [3]) | SI (selectivity index) (SFV-Rluc [3]) | CHIKV replicon % left (CHIKV replicon) | IC50 (BHK cells) | IC50 (SFV [4]) | IC50 (CHIKV replicon; read-out: EGFP IC50) | IC50 (CHIKV replicon; read-out: Rluc IC50) | IC50 (CHIKV-Rluc) | IC50 (BHK-CHIKV-NCT cells; [5]) | IC50 (BHK-CHIKV-NCT cells; read-out: Cell viability IC50, ATP assay, 48 h exposure of BHK-CHIKV-NCT cells, up to 200 µM) | Effect on SFV entry (Rluc activity) (SFVts9-Rluc) | Decrease of SFV titer versus untreated control (SFV [1]; 50 µM compound, MOI 0.01, 16 h) | IC50 (SFV-Rluc [3]; read-out: SFV IC50) | Change of replicon IC50 with guanosine supplementation (CHIKV replicon)
N/C(CC(O)COc1cccc2ccccc12)=N/O (centres unmarked) [Nadoxolol] | 8.2 µM | 9.2×10^7 PFU/ml | 16.4 µM | 20.8% | >12.2 | 69.2% | > 200 µM | 15.2 µM |  |  |  |  |  |  |  |  | 
O=C1C[C@@H](c2ccc(O)cc2)Oc2cc(O)cc(O)c21 [Naringenin] | 21.2 µM | 8.2×10^7 PFU/ml | 2.2 µM | -0.0736% | 42.8 | 6.2% | 94.1 µM | 19.3 µM | 25.8 µM | 30 µM | 118 µM | 104 µM | 122 µM | None of the other compounds, including the flavonoids apigenin, chrysin, naringenin and silybin, inhibited SFV entry |  |  | 
OCCN1CCN(CCCN2c3ccccc3C=Cc3ccccc32)CC1 [Opipramol] | 31 µM | 2.5×10^8 PFU/ml | 19.7 µM | 27.5% | >10.2 | 101.5% | > 200 µM | 25 µM |  |  |  |  |  |  |  |  | 
OCCN1CCN(CCCN2c3ccccc3Sc3ccc(Cl)cc32)CC1 [Perphenazine] |  |  | 25.1 µM | 10.6% | 6.2 | 88.1% | 155 µM |  |  |  | 48.1 µM |  |  | decreased the Rluc activity |  |  | 
CN(C)CCCN1c2ccccc2Sc2cccnc21 [Prothipendyl] | 46.5 µM | 4.0×10^8 PFU/ml | 8.2 µM |  | >24.4 |  | > 200 µM | 34.2 µM | 135 µM | 93.3 µM | 97.3 µM | 186 µM |  |  |  |  | 
O=C(O)c1ccc(O)c(O)c1 [Protocatechuic acid] | > 200 µM | 2.4×10^9 PFU/ml | 8 µM | 21.1% | >25.0 | 105.4% | > 200 µM | > 200 µM |  |  |  |  |  |  |  |  | 
Oc1cccc(O)c1O [Pyrogallol] | > 200 µM | 1.1×10^9 PFU/ml | 18.7 µM | 22.7% | >10.7 | 89.2% | > 200 µM | > 200 µM |  |  |  |  |  |  |  |  | 
NC(=O)c1ncn([C@@H]2O[C@H](CO)[C@@H](O)[C@H]2O)n1 [Ribavirin] | 51.8 µM | 2.1×10^8 PFU/ml | ~100 µM |  |  |  | > 200 µM | 28.1 µM | 8.8 µM | 25.4 µM |  | > 200 µM |  |  | approximately one order of magnitude | 95.1 µM | increased by at least two orders of magnitude
COc1cc(C2Oc3cc([C@H]4Oc5cc(O)cc(O)c5C(=O)[C@@H]4O)ccc3OC2CO)ccc1O (some centres unmarked) [Silybin] | 22.6 µM | 3.7×10^8 PFU/ml | 16.4 µM | 22.4% | >12.2 | 14.1% | > 200 µM | 9.6 µM | 71.1 µM | 59.8 µM | 92.3 µM | > 200 µM |  | None of the other compounds, including the flavonoids apigenin, chrysin, naringenin and silybin, inhibited SFV entry |  |  | 
CCSc1ccc2c(c1)N(CCCN1CCN(C)CC1)c1ccccc1S2 [Thiethylperazine] |  |  | 15 µM | 26.5% | 5.5 | 101.1% | 83.1 µM |  |  |  | 63.8 µM |  |  | decreased the Rluc activity |  |  | 
CSc1ccc2c(c1)N(CCC1CCCCN1C)c1ccccc1S2 (centres unmarked) [Thioridazine, reference compound] |  | 6.8×10^8 PFU/ml |  | 11.6% |  | 95.4% |  |  |  |  |  |  |  | decreased the Rluc activity |  |  | 
